The source of these data is patent publication US8258134B2, “Pyridazinone glucokinase activators” (Hoffmann-La Roche Inc., priority 2008, dated 2012).

The structures appear in SMILES notation.

One assay addresses T1, Recombinant human liver GK1 (GST-GK) (Homo sapiens, UniProt P35557).
T1 construct: made in house; host or cells: E. coli
T1 sequence (P35557 1-466 isoform P35557-2): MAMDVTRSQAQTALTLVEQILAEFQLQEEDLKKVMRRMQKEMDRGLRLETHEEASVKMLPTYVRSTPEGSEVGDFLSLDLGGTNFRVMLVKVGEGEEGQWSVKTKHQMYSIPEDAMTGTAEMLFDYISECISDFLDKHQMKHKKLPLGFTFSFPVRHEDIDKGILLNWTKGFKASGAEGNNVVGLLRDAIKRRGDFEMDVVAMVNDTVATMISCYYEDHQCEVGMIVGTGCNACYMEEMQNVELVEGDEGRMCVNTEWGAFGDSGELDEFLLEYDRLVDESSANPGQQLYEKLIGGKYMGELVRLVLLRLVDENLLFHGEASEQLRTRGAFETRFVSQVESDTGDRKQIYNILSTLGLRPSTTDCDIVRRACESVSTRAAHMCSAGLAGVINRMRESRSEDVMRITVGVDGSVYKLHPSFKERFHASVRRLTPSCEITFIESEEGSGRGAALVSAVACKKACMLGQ
Description: Glucokinase in vitro assay (G6PDH-coupled NADH generation, OD340). Format: biochemical. The conditions noted are these: 30 uM test compound, 5 mM D-glucose. Put shortly: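 Activation readout is SC1.5, the activator concentration raising GK rate (OD340/min) 50% above 10% DMSO controls. The coupled reaction used GST-GK1 from E. coli, 5 mM glucose, 1 mM ATP, 1.8 mM NAD and 25 mM Hepes pH 7.1 at 30° C. Enzyme was added after a 10 min compound pre-incubation.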
Consider `CC1CCCC(C)C1Oc1cnn(C(CC2CCCC2)C(=O)Nc2ccn(C[C@@H](O)CO)n2)c(=O)c1` (stereo partly drawn) [Example 91, 3-Cyclopentyl-N-[1-((R)-2,3-dihydroxy-propyl)-1H-pyrazol-3-yl]-2-[4-(2,6-dimethyl-cyclohexyloxy)-6-oxo-6H-pyridazin-1-yl]-propionamide], for which the “fold activation @ 30 uM” value is on record as 1.28 fold.
On the same count and under the same terms, the value for `O=C(Nc1ccn(C[C@@H](O)CO)n1)C(CC1CCCC1)n1ncc(OC2CCC2)cc1=O` (stereo partly drawn) [Example 94, 2-(4-Cyclobutoxy-6-oxo-6H-pyridazin-1-yl)-3-cyclopentyl-N-[1-((R)-2,3-dihydroxy-propyl)-1H-pyrazol-3-yl]-propionamide] was 1.33 fold.

Staying with this assay, now noted: 5 mM D-glucose, 30° C., pH 7.1, 10% DMSO.
With `O=C(Nc1ccn(CCO)n1)C(CC1CCC1)n1ncc(Oc2c(F)cccc2F)cc1=O` (centres unmarked) [Example 55, 3-Cyclobutyl-2-[4-(2,6-difluoro-phenoxy)-6-oxo-6H-pyridazin-1-yl]-N-[1-(2-hydroxy-ethyl)-1H-pyrazol-3-yl]-propionamide], the “SC1.5 average (concentration of activator that produced a 50% increase in the activity of GK)” value was 0.468 µM.
On the same count and under the same terms, then `O=C(Nc1ccn(C[C@@H](O)CO)n1)C(CC1CCCC1)n1ncc(Oc2cccc3[nH]ccc23)cc1=O` (stereo partly drawn) [Example 96, 3-Cyclopentyl-N-[1-((R)-2,3-dihydroxy-propyl)-1H-pyrazol-3-yl]-2-[4-(1H-indol-4-yloxy)-6-oxo-6H-pyridazin-1-yl]-propionamide], with 0.067 µM.
For the compound `CC1CCCC(C)C1Oc1cnn(C(CC2CCCC2)C(=O)Nc2ccn(C[C@@H](O)CO)n2)c(=O)c1` (stereo partly drawn) [Example 91, 3-Cyclopentyl-N-[1-((R)-2,3-dihydroxy-propyl)-1H-pyrazol-3-yl]-2-[4-(2,6-dimethyl-cyclohexyloxy)-6-oxo-6H-pyridazin-1-yl]-propionamide], the “SC1.5 average (concentration of activator that produced a 50% increase in the activity of GK)” value was over 30 µM.
The same measure, in the same setting: the value for `CC(C)(O)Cn1ccc(NC(=O)C(CC2CCCC2)n2ncc(Oc3cccc4cccnc34)cc2=O)n1` (centres unmarked) [Example 39, 3-Cyclopentyl-N-[1-(2-hydroxy-2-methyl-propyl)-1H-pyrazol-3-yl]-2-[6-oxo-4-(quinolin-8-yloxy)-6H-pyridazin-1-yl]-propionamide] was 0.499 µM; that for `O=C(Nc1ccn(CCO)n1)C(CC1CCCCC1)n1ncc(Oc2c(F)cccc2F)cc1=O` (centres unmarked) [Example 56, 3-Cyclohexyl-2-[4-(2,6-difluoro-phenoxy)-6-oxo-6H-pyridazin-1-yl]-N-[1-(2-hydroxy-ethyl)-1H-pyrazol-3-yl]-propionamide] was 0.153 µM; that for `O=C(Nc1ccn(CCO)n1)C(CC1CCCC1)n1ncc(Oc2c(F)cccc2F)cc1=O` (centres unmarked) [Example 60, 3-Cyclopentyl-2-[4-(2,6-difluoro-phenoxy)-6-oxo-6H-pyridazin-1-yl]-N-[1-(2-hydroxy-ethyl)-1H-pyrazol-3-yl]-propionamide] was 0.166 µM.
On the same count and under the same terms, the value for `Cc1ccccc1Oc1cnn([C@@H](CC2CCCC2)C(=O)Nc2ccn(CC(C)(C)O)n2)c(=O)c1` [Example 24A, (S)-3-Cyclopentyl-N-[1-(2-hydroxy-2-methyl-propyl)-1H-pyrazol-3-yl]-2-(6-oxo-4-o-tolyloxy-6H-pyridazin-1-yl)-propionamide] was 0.1 µM; that for `CC(C)(O)Cn1ccc(NC(=O)C(CC2CCCC2)n2ncc(OCC3CCCC3)cc2=O)n1` (centres unmarked) [Example 9, 3-Cyclopentyl-2-(4-cyclopentylmethoxy-6-oxo-6H-pyridazin-1-yl)-N-[1-(2-hydroxy-2-methyl-propyl)-1H-pyrazol-3-yl]-propionamide] was 1.548 µM.
As for `CC(C)(O)Cn1ccc(NC(=O)[C@H](CC2CCCC2)n2ncc(Oc3cccc(F)c3F)cc2=O)n1` [Example 31A, (S)-3-Cyclopentyl-2-[4-(2,3-difluoro-phenoxy)-6-oxo-6H-pyridazin-1-yl]-N-[1-(2-hydroxy-2-methyl-propyl)-1H-pyrazol-3-yl]-propionamide], the “SC1.5 average (concentration of activator that produced a 50% increase in the activity of GK)” value amounted to 0.18 µM.
As to `Cc1ccccc1Oc1cnn([C@H](CC2CCCC2)C(=O)Nc2ccn(CC(C)(C)O)n2)c(=O)c1` [Example 24B, (R)-3-Cyclopentyl-N-[1-(2-hydroxy-2-methyl-propyl)-1H-pyrazol-3-yl]-2-(6-oxo-4-o-tolyloxy-6H-pyridazin-1-yl)-propionamide], the “SC1.5 average (concentration of activator that produced a 50% increase in the activity of GK)” value was found to be 5.88 µM.
For `O=C(Nc1ccn(C[C@H](O)CO)n1)[C@@H](CC1CCCC1)n1ncc(Oc2c(F)cccc2F)cc1=O` [Example 65B, (R)-3-Cyclopentyl-2-[4-(2,6-difluoro-phenoxy)-6-oxo-6H-pyridazin-1-yl]-N-[1-((S)-2,3-dihydroxy-propyl)-1H-pyrazol-3-yl]-propionamide], the “SC1.5 average (concentration of activator that produced a 50% increase in the activity of GK)” value is 3.148 µM.
Consider `O=C(Nc1ccn(C[C@@H](O)CO)n1)C(CC1CCCC1)n1ncc(OC2CCC2)cc1=O` (stereo partly drawn) [Example 94, 2-(4-Cyclobutoxy-6-oxo-6H-pyridazin-1-yl)-3-cyclopentyl-N-[1-((R)-2,3-dihydroxy-propyl)-1H-pyrazol-3-yl]-propionamide], for which the “SC1.5 average (concentration of activator that produced a 50% increase in the activity of GK)” value is over 30 µM.
`CC(C)(O)Cn1ccc(NC(=O)C(CC2CCCCC2)n2ncc(Oc3ccccc3)c(Cl)c2=O)n1` (centres unmarked) [Example 136, 2-(5-Chloro-6-oxo-4-phenoxy-6H-pyridazin-1-yl)-3-cyclohexyl-N-[1-(2-hydroxy-2-methyl-propyl)-1H-pyrazol-3-yl]-propionamide]: the “SC1.5 average (concentration of activator that produced a 50% increase in the activity of GK)” value was 1.17 µM.
As for `COC(=O)c1ccc(NC(=O)C(CC2CCCC2)n2ncc(Oc3c(F)cccc3F)cc2=O)nc1` (centres unmarked) [Example 68, 6-{3-Cyclopentyl-2-[4-(2,6-difluoro-phenoxy)-6-oxo-6H-pyridazin-1-yl]-propionylamino}-nicotinic acid methyl ester], the “SC1.5 average (concentration of activator that produced a 50% increase in the activity of GK)” value stood at 0.013 µM.
As to `Cc1ccc(C)c(Oc2cnn(C(CC3CCCC3)C(=O)Nc3ccn(CC(C)(C)O)n3)c(=O)c2)c1C` (centres unmarked) [Example 88, 3-Cyclopentyl-N-[1-(2-hydroxy-2-methyl-propyl)-1H-pyrazol-3-yl]-2-[6-oxo-4-(2,3,6-trimethyl-phenoxy)-6H-pyridazin-1-yl]-propionamide], the “SC1.5 average (concentration of activator that produced a 50% increase in the activity of GK)” value was found to be 0.204 µM.
In the case of `CC(C)(O)Cn1ccc(NC(=O)C(CC2CCCC2)n2ncc(Oc3cccc4ncccc34)cc2=O)n1` (centres unmarked) [Example 38, 3-Cyclopentyl-N-[1-(2-hydroxy-2-methyl-propyl)-1H-pyrazol-3-yl]-2-[6-oxo-4-(quinolin-5-yloxy)-6H-pyridazin-1-yl]-propionamide], the “SC1.5 average (concentration of activator that produced a 50% increase in the activity of GK)” value amounted to 0.776 µM.
Still for that read-out and setting: then `CC(C)(O)Cn1ccc(NC(=O)[C@@H](CC2CCCC2)n2ncc(Oc3ccccc3C#N)cc2=O)n1` [Example 29B, (R)-2-[4-(2-Cyano-phenoxy)-6-oxo-6H-pyridazin-1-yl]-3-cyclopentyl-N-[1-(2-hydroxy-2-methyl-propyl)-1H-pyrazol-3-yl]-propionamide], with 11.185 µM.
The same measure, in the same setting: then `CC(C)(O)Cn1ccc(NC(=O)[C@@H](CC2CCCC2)n2ncc(Oc3ccccc3N3CCCC3)cc2=O)n1` [Example 26B, (R)-3-Cyclopentyl-N-[1-(2-hydroxy-2-methyl-propyl)-1H-pyrazol-3-yl]-2-[6-oxo-4-(2-pyrrolidin-1-yl-phenoxy)-6H-pyridazin-1-yl]-propionamide], with 26.027 µM; and `Cc1nsc(NC(=O)C(CC2CCCC2)n2ncc(Oc3ccccc3)cc2=O)n1` (centres unmarked) [Example 3, 3-Cyclopentyl-N-(3-methyl-[1,2,4]thiadiazol-5-yl)-2-(6-oxo-4-phenoxy-6H-pyridazin-1-yl)-propionamide], with 2.07 µM.
With `CC(C)(O)Cn1ccc(NC(=O)C(CC2CCCCC2)n2ncc(Oc3ccc(OC(F)(F)F)cc3Cl)c(Cl)c2=O)n1` (centres unmarked) [Example 130, 2-[5-Chloro-4-(2-chloro-4-trifluoromethoxy-phenoxy)-6-oxo-6H-pyridazin-1-yl]-3-cyclohexyl-N-[1-(2-hydroxy-2-methyl-propyl)-1H-pyrazol-3-yl]-propionamide], the “SC1.5 average (concentration of activator that produced a 50% increase in the activity of GK)” value came to 10.224 µM.
On to `CC(=O)c1ccccc1Oc1cnn(C(CC2CCCC2)C(=O)Nc2ccn(CC(C)(C)O)n2)c(=O)c1` (centres unmarked) [Example 40, 2-[4-(2-Acetyl-phenoxy)-6-oxo-6H-pyridazin-1-yl]-3-cyclopentyl-N-[1-(2-hydroxy-2-methyl-propyl)-1H-pyrazol-3-yl]-propionamide], for which the “SC1.5 average (concentration of activator that produced a 50% increase in the activity of GK)” value stood at 0.228 µM.
On the same count and under the same terms, the value for `Cc1ccccc1Oc1cnn(C(CC2CCCC2)C(=O)Nc2ccc(C(=O)O)cn2)c(=O)c1` (centres unmarked) [Example 74, 6-[3-Cyclopentyl-2-(6-oxo-4-o-tolyloxy-6H-pyridazin-1-yl)-propionylamino]-nicotinic acid] was 0.067 µM; that for `CC(C)(O)Cn1ccc(NC(=O)C(CC2CCCC2)n2ncc(Sc3ccccc3)cc2=O)n1` (centres unmarked) [Example 123, 3-Cyclopentyl-N-[1-(2-hydroxy-2-methyl-propyl)-1H-pyrazol-3-yl]-2-(6-oxo-4-phenylsulfanyl-6H-pyridazin-1-yl)-propionamide] was 0.441 µM; that for `O=C(O)c1ccc(NC(=O)C(CC2CCCC2)n2ncc(Oc3ccccc3F)cc2=O)nc1` (centres unmarked) [Example 75, 6-{3-Cyclopentyl-2-[4-(2-fluoro-phenoxy)-6-oxo-6H-pyridazin-1-yl]-propionylamino}-nicotinic acid] was 0.058 µM.
